Measurements reported in patent US12660819B2, “Herbicidal derivatives” (SYNGENTA CROP PROTECTION AG, priority 2020, dated 2026).

Columns and labels:
Type in all cases: in vivo
[1] = test system: Echinochloa crus-galli (ECHCG); assay: Pre-emergence Test (glasshouse, percentage damage to the plant); conditions: 1000 g/ha unless otherwise stated, five-point scale
[2] = test system: Ipomoea hederacea (IPOHE); assay: as above; conditions: 1000 g/ha unless otherwise stated, five-point scale
[3] = test system: Amaranthus retoflexus (AMARE); assay: as above; conditions: 1000 g/ha unless otherwise stated, five-point scale
Setaria faberi (SETFA) [4] = assay: as above; conditions: 1000 g/ha unless otherwise stated, five-point scale
[5] = test system: Amaranthus retoflexus (AMARE); assay: Post-emergence Test (glasshouse, percentage damage to the plant); conditions: post-emergence spray, 1000 g/ha unless otherwise stated, evaluated after 13 days
In short: (§1)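 Sown pots; spray 1000 g/ha (unless stated) in acetone/water 50:50 + 0.5% Tween 20; glasshouse 24/16 °C, 14 h light, 65% RH; watered twice daily; % damage read at 13 days, scored 1–5.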

Zea mays (ZEAMX) [6] = assay: as above; conditions: post-emergence spray, 1000 g/ha unless otherwise stated, evaluated after 13 days
In short: (§2)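 Seeds sown in pots in glasshouse (24/16 °C day/night, 14 h light, 65% humidity), then sprayed with compound at 1000 g/ha unless stated, from acetone/water 50:50 with 0.5% Tween 20. Damage assessed 13 days later on five-point scale (1=0–20% to 5=81–100%).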

[7] = test system: Abutilon theophrasti (ABUTH); assay: as above; conditions: post-emergence spray, 1000 g/ha unless otherwise stated, evaluated after 13 days
In short: as §1

[8] = test system: Echinochloa crus-galli (ECHCG); assay: as above; conditions: post-emergence spray, 1000 g/ha unless otherwise stated, evaluated after 13 days
In short: as §1

Setaria faberi (SETFA) [9] = assay: as above; conditions: post-emergence spray, 1000 g/ha unless otherwise stated, evaluated after 13 days
In short: as §2

[10] = test system: Ipomoea hederacea (IPOHE); assay: as above; conditions: post-emergence spray, 1000 g/ha unless otherwise stated, evaluated after 13 days
In short: as §2

[11] = test system: Abutilon theophrasti (ABUTH); assay: Pre-emergence Test (glasshouse, percentage damage to the plant); conditions: 1000 g/ha unless otherwise stated, five-point scale
Zea mays (ZEAMX) [12] = assay: as above; conditions: 1000 g/ha unless otherwise stated, five-point scale
[13] = test system: Amaranthus palmeri (AMAPA); assay: Post-emergence Test (glasshouse, percentage damage to the plant); conditions: post-emergence spray, 1000 g/ha unless otherwise stated, evaluated after 13 days
In short: as §1

[14] = test system: Amaranthus palmeri (AMAPA); assay: Pre-emergence Test (glasshouse, percentage damage to the plant); conditions: 1000 g/ha unless otherwise stated, five-point scale

| SMILES | percentage damage to the plant, ECHCG [1] | percentage damage to the plant, IPOHE [2] | percentage damage to the plant, AMARE [3] | percentage damage to the plant, SETFA (Setaria faberi (SETFA) [4]) | Post-emergence Test AMARE, percentage damage to the plant (five-point scale) [5] | Post-emergence Test ZEAMX, percentage damage to the plant (five-point scale) (Zea mays (ZEAMX) [6]) | Post-emergence Test ABUTH, percentage damage to the plant (five-point scale) [7] | Post-emergence Test ECHCG, percentage damage to the plant (five-point scale) [8] | Post-emergence Test SETFA, percentage damage to the plant (five-point scale) (Setaria faberi (SETFA) [9]) | Post-emergence Test IPOHE, percentage damage to the plant (five-point scale) [10] | percentage damage to the plant, ABUTH [11] | percentage damage to the plant, ZEAMX (Zea mays (ZEAMX) [12]) | Post-emergence Test AMAPA, percentage damage to the plant (five-point scale) [13] | percentage damage to the plant, AMAPA [14] |
| --- | --- | --- | --- | --- | --- | --- | --- | --- | --- | --- | --- | --- | --- | --- |
| CCn1c(C)c(-c2ccc(F)cc2OC)c(=O)c(C(=O)O)c1-c1ccc(Cl)c(Cl)c1 [Compound 157, 2-(3,4-dichlorophenyl)-1-ethyl-5-(4-fluoro-2-methoxy-phenyl)-6-methyl-4-oxo-pyridine-3-carboxylic acid] | 4 (4=61-80%) | 2 (2=21-40%) | 0 | 5 (5=81-100%) | 1 (1=0-20%) | 4 (4=61-80%) | 4 (4=61-80%) | 4 (4=61-80%) | 4 (4=61-80%) | 4 (4=61-80%) | 4 (4=61-80%) | 3 (3=41-60%) | – | – |
| CCn1c(C)c(-c2ccc(Cl)cc2SC)c(=O)c(C(=O)O)c1-c1ccc(Cl)c(Cl)c1 [Compound 158, 5-(4-chloro-2-methylsulfanyl-phenyl)-2-(3,4-dichlorophenyl)-1-ethyl-6-methyl-4-oxo-pyridine-3-carboxylic acid] | 0 | 0 | 0 | 0 | 4 (4=61-80%) | 1 (1=0-20%) | – | – | 1 (1=0-20%) | 2 (2=21-40%) | – | 0 | 5 (5=81-100%) | 3 (3=41-60%) |
| CCn1c(C)c(-c2cccs2)c(=O)c(C(=O)O)c1-c1ccc(Cl)cc1 [Compound 165, 2-(4-chlorophenyl)-1-ethyl-6-methyl-4-oxo-5-(2-thienyl)pyridine-3-carboxylic acid] | 0 | 1 (1=0-20%) | 1 (1=0-20%) | 0 | 0 | 1 (1=0-20%) | 2 (2=21-40%) | 0 | 1 (1=0-20%) | 2 (2=21-40%) | 1 (1=0-20%) | 0 | – | – |
| CCn1c(C)c(-c2ccc(Cl)s2)c(=O)c(C(=O)O)c1-c1ccc(Cl)cc1 [Compound 166, 2-(4-chlorophenyl)-5-(5-chloro-2-thienyl)-1-ethyl-6-methyl-4-oxo-pyridine-3-carboxylic acid] | 0 | 1 (1=0-20%) | 1 (1=0-20%) | 0 | 2 (2=21-40%) | 1 (1=0-20%) | 3 (3=41-60%) | 2 (2=21-40%) | 3 (3=41-60%) | 1 (1=0-20%) | 1 (1=0-20%) | 0 | – | – |
| CCn1c(C)c(-c2cc(C)cs2)c(=O)c(C(=O)O)c1-c1ccc(Cl)cc1 [Compound 167, 2-(4-chlorophenyl)-1-ethyl-6-methyl-5-(4-methyl-2-thienyl)-4-oxo-pyridine-3-carboxylic acid] | 0 | 1 (1=0-20%) | 1 (1=0-20%) | 2 (2=21-40%) | 0 | 1 (1=0-20%) | 4 (4=61-80%) | 1 (1=0-20%) | 2 (2=21-40%) | 3 (3=41-60%) | 3 (3=41-60%) | 3 (3=41-60%) | – | – |
